# Measured values as given in patent US20250318998A1, “REMINERALIZING RESTORATIVE COMPOSITIONS AND METHODS THEREOF” (ADA FORSYTH INSTITUTE, INC., priority 2023, published 2025).
# Residues, ends and D or L forms follow the SMILES beside them.
# Assay: Water solubility (statement)
# Assay type: physicochemical
smiles,measurement,value
N[C@@H](CC(=O)O)C(=O)N[C@@H](CO)C(=O)N[C@@H](CO)C(=O)N[C@@H](CC(=O)O)C(=O)N[C@@H](CO)C(=O)N[C@@H](CO)C(=O)N[C@@H](CC(=O)O)C(=O)N[C@@H](CO)C(=O)N[C@@H](CO)C(=O)N[C@@H](CC(=O)O)C(=O)N[C@@H](CO)C(=O)N[C@@H](CO)C(=O)N[C@@H](CC(=O)O)C(=O)N[C@@H](CO)C(=O)N[C@@H](CO)C(=O)N[C@@H](CC(=O)O)C(=O)N[C@@H](CO)C(=O)N[C@@H](CO)C(=O)N[C@@H](CC(=O)O)C(=O)N[C@@H](CO)C(=O)N[C@@H](CO)C(=O)N[C@@H](CC(=O)O)C(=O)N[C@@H](CO)C(=O)N[C@@H](CO)C(=O)O [8DSS] (H-DSSDSSDSSDSSDSSDSSDSSDSS-OH; N-terminus and C-terminus assumed),water solubility,water soluble
